Measured values published in publication PMC3108469 (Journal of Medicinal Chemistry, 2011).

Settings: Sprague–Dawley rats

Compound: CN(C)c1cc(NC(=O)CNC(C)(C)C)c(O)c2c1C[C@H]1C[C@H]3[C@H](N(C)C)C(O)=C(C(N)=O)C(=O)[C@@]3(O)C(O)=C1C2=O [tigecycline, reference compound]
- oral bioavailability (%F): almost no oral bioavailability

Compound: CN(C)[C@@H]1C(O)=C(C(N)=O)C(=O)[C@@]2(O)C(O)=C3C(=O)c4c(c(F)c5ccc(CN6CCC6)cc5c4O)C[C@H]3C[C@@H]12 [19c-5, (4S,4aS,5aR,14aS)-10-(Azetidin-1-ylmethyl)-4-(dimethylamino)-7-fluoro-3,12,14,14a-tetrahydroxy-1,13-dioxo-1,4,4a,5,5a,6,13,14a-octahydropentacene-2-carboxamide]
- Vz: exceptionally large
- exposure: extremely poor exposure
